What was measured:
[1] = test system: Doxorubicin-induced cardiotoxicity; assay: Protection against Doxorubicin-induced cardiotoxicity / cardiac dysfunctions in vivo; settings: among the synthesized new kaurane analogues
[2] = test system: cerebral ischemia animal model; assay: Cerebral ischemia animal model; format: in vivo; settings: in comparison of control
[3] = test system: drug induced diabetes animal model; assay: Drug induced diabetes animal model with cardiomyopathy; format: in vivo; settings: cardiomyopathy developed after 4 weeks; treatment for 2 weeks
Text: In other embodiment, this invention disclosed that in a drug induced diabetes animal model, cardiomyopathy was developed after 4 weeks. However, the cardiac inflammatory changes were diminished after treatment of compound 1 and 2 for 2 weeks.

[4] = test system: chronic cardiac hypertrophy and heart failure animal induced by TAC; assay: Chronic cardiac hypertrophy and heart failure animal induced by TAC (Thoracic aorta constriction); format: in vivo; settings: for interstitial collagen deposition (histo-pathology) / number of myofibroblasts (histo-pathology) / size of cardiomyocytes (histo-pathology): treated 4 weeks, in comparing to control; for cardiac contractility: treated for consecutive 4 weeks after the surgery, in comparing of control animals
Procedure: Furthermore, in an embodiment of this invention, a chronic cardiac hypertrophy and heart failure animal was induced by TAC (Thoracic aorta constriction) . The animal was treated with compound 1 and 2 for consecutive 4 weeks after the surgery.

[5] = test system: cardiac toxicity animal induced by other drugs used for chemotherapy; assay: Cardiac toxicity animal induced by other chemotherapy drugs (anthracyclines: epirubicin, daunorubicin, aclarubicin); format: in vivo; settings: cardiac toxicity induced by anthracyclines including epirubicin
[6] = DOX alone or DOX co-treated with the compound
[7] = test system: cardiac ischemia animal model by coronary ligation; assay: Cardiac ischemia animal model by coronary ligation; format: in vivo; settings: for area of infraction / cardiac contractility / number of micro-blood vessels: coronary ligation, in comparison of control; for function of failing heart due to acute coronary ligation / occurrence of arrhythmia induced by acute ischemia: in vivo
Text: This invention disclosed that compound 1 and 2 can increased the function of failing heart due to acute coronary ligation.

Compound	protective activity against Doxorubicin-induced cardiotoxicity [1]	area of infraction [2]	movement and behavers [2]	cardiac inflammatory changes [3]	interstitial collagen deposition (histo-pathology) [4]	number of myofibroblasts (histo-pathology) [4]	size of cardiomyocytes (histo-pathology) [4]	cardiac contractility [4]	effects in term of function and pathology [5]	LC50 of DOX [6] [µM]	area of infraction [7]	cardiac contractility [7]	number of micro-blood vessels [7]	function of failing heart due to acute coronary ligation [7]	occurrence of arrhythmia induced by acute ischemia [7]
C[C@]12CC[C@@H]3C(CC[C@H]4[C@@]3(C)CCC[C@@]4(C)C(=O)O)(C1)[C@H](C=O)[C@H]2O [compound 2, (4R, 4aS, 7S, 8R, 9S, 11aS, 11bS)-7-formyl-8-hydroxy-4,9, llb-trimethyltetradecahydro-6a, 9-methanocyclohepta[a]naphthalene-4-carboxylic acid]	maximum protective activity	significantly reduced	improved	diminished	reduced	reduced	significant reduction	significantly enhanced	Signiant beneficial effects	92.61	reduced	significantly increased	increased	increased	reduced
C[C@]12CC[C@@H]3C(CC[C@H]4[C@@]3(C)CCC[C@@]4(C)C(=O)O)(C1)[C@H](C(=O)O)[C@H]2O [compound 1, (4R, 4aS, 7S, 8R, 9S, 11aS, 11lbS)-8-hydroxy-4,9, 11b-trimethyltetradecahydro-6a, 9-methanocyclohepta[a]naphthalene-4,7-dicarboxylic acid]	maximum protective activity	significantly reduced	improved	diminished	reduced	reduced	significant reduction	significantly enhanced	Signiant beneficial effects	66.62	reduced	significantly increased	increased	increased	reduced
C[C@]12CC[C@@H]3C(CC[C@H]4[C@@]3(C)CCC[C@@]4(C)C(=O)O)(C1)[C@H](CO)C2=O [compound 3, (4R, 4aS, 7R, 9S, 11aS, 11bS)-7-(hydroxymethyl)-4,9, 11b-trimethyl-8-oxotetradecahydro-6a, 9-methanocyclohepta[a]naphthalene-4-carboxylic acid]	–	–	–	–	–	–	–	–	–	74.83	–	–	–	–	–
COc1cccc2c1C(=O)c1c(O)c3c(c(O)c1C2=O)C[C@@](O)(C(=O)CO)C[C@@H]3O[C@H]1C[C@H](N)[C@H](O)[C@H](C)O1 [DOX, Doxorubicin, reference compound]	–	–	–	–	–	–	–	–	–	51.56	–	–	–	–	–
